# According to ChEMBL document CHEMBL6074684, “Structure-activity relationship study of novel evodiamine amino acid conjugates with potent anti-colorectal cancer efficacy” (Eur J Med Chem, 2025):
# pIC50: −log10 of the molar value.
# What was measured:
# Format in all cases: functional, cell-based
# [1] = system: HT-29; assay: Antiproliferative activity against human HT-29 cells assessed as inhibition of cell growth incubated for 72 hrs by MTT assay; details: HT-29, 72 h
# [2] = system: HCT-116; assay: Antiproliferative activity against human […] cells assessed as inhibition of cell growth incubated for 72 hrs by MTT assay; details: HCT-116, 72 h
# [3] = system: RKO; assay: Antiproliferative activity against human RKO cells assessed as inhibition of cell growth incubated for 72 hrs by MTT assay
# [4] = system: Huh-7; assay: Antiproliferative activity against human Huh-7 cells assessed as inhibition of cell growth incubated for 72 hrs by MTT assay; details: Huh-7, 72 h
# [5] = system: HGC-27; assay: Antiproliferative activity against human HGC-27 cells assessed as inhibition of cell growth incubated for 72 hrs by MTT assay; details: HGC-27, 72 h
# [6] = system: MGC-803; assay: Antiproliferative activity against human MGC-803 cells assessed as inhibition of cell growth incubated for 72 hrs by MTT assay; details: MGC-803, 72 h
# [7] = system: SK-HEP1; assay: Antiproliferative activity against human SK-HEP1 cells assessed as inhibition of cell growth incubated for 72 hrs by MTT assay; details: SK-HEP1, 72 h
# [8] = system: MCF7; assay: Antiproliferative activity against human MCF7 cells assessed as inhibition of cell growth incubated for 72 hrs by MTT assay; details: MCF7, 72 h
# [9] = system: LoVo; assay: Antiproliferative activity against human LoVo cells assessed as inhibition of cell growth incubated for 72 hrs by MTT assay
# [10] = system: SGC-7901; assay: Antiproliferative activity against human SGC-7901 cells assessed as inhibition of cell growth incubated for 72 hrs by MTT assay; details: SGC-7901, 72 h
pIC50 [1],pIC50 [2],pIC50 [4],pIC50 [6],pIC50 [7],pIC50 [8],pIC50 [9],pIC50 [10],SMILES,pIC50 [3],pIC50 [5]
6.48,6.44,6.68,6.48,6.17,6.11,6.70,6.29,CSCC[C@H](NC(=O)OC(C)(C)C)C(=O)Oc1ccc2[nH]c3c(c2c1)CCN1C(=O)c2cc(F)ccc2N(c2cccc(F)c2)[C@H]31,6.85,6.68
4.73,4.74,4.93,4.95,4.58,4.55,4.71,4.40,C[C@H](NC(=O)OC(C)(C)C)C(=O)Oc1ccc2[nH]c3c(c2c1)CCN1C(=O)c2cc(F)ccc2N(c2cccc(F)c2)[C@@H]31,4.80,4.69
6.37,6.44,6.70,6.66,6.11,6.02,6.64,6.31,CC(C)(C)OC(=O)N[C@@H](Cc1ccccc1)C(=O)Oc1ccc2[nH]c3c(c2c1)CCN1C(=O)c2cc(F)ccc2N(c2cccc(F)c2)[C@H]31,7.05,6.55
4.55,4.68,4.89,4.81,4.47,4.33,4.91,4.18,CC(C)(C)OC(=O)N[C@@H](Cc1cnc[nH]1)C(=O)Oc1ccc2[nH]c3c(c2c1)CCN1C(=O)c2cc(F)ccc2N(c2cccc(F)c2)[C@@H]31,4.79,4.63
6.72,6.43,6.85,6.49,6.19,5.96,6.66,6.16,CC(C)C[C@H](NC(=O)OC(C)(C)C)C(=O)Oc1ccc2[nH]c3c(c2c1)CCN1C(=O)c2cc(F)ccc2N(c2cccc(F)c2)[C@H]31,6.82,6.52
6.36,6.26,6.51,6.32,6.01,6.09,6.49,5.80,CCC(C)[C@H](NC(=O)OC(C)(C)C)C(=O)Oc1ccc2[nH]c3c(c2c1)CCN1C(=O)c2cc(F)ccc2N(c2cccc(F)c2)[C@H]31 (some centres undefined),6.64,6.28
4.52,4.62,4.87,4.73,4.44,4.51,4.74,4.17,CC(C)(C)OC(=O)N[C@@H](Cc1c[nH]c2ccccc12)C(=O)Oc1ccc2[nH]c3c(c2c1)CCN1C(=O)c2cc(F)ccc2N(c2cccc(F)c2)[C@@H]31,4.80,4.59
4.52,4.58,4.93,4.80,4.42,4.33,4.80,4.32,CC(C)(C)OC(=O)N[C@@H](Cc1ccccc1)C(=O)Oc1ccc2[nH]c3c(c2c1)CCN1C(=O)c2cc(F)ccc2N(c2cccc(F)c2)[C@@H]31,4.71,4.64
4.59,4.54,4.85,4.68,4.42,4.52,4.66,4.35,CC(C)[C@H](NC(=O)OC(C)(C)C)C(=O)Oc1ccc2[nH]c3c(c2c1)CCN1C(=O)c2cc(F)ccc2N(c2cccc(F)c2)[C@@H]31,4.92,4.65
6.42,6.40,6.52,6.39,6.19,6.08,6.72,6.27,CC(C)(C)OC(=O)N[C@@H](COCc1ccccc1)C(=O)Oc1ccc2[nH]c3c(c2c1)CCN1C(=O)c2cc(F)ccc2N(c2cccc(F)c2)[C@H]31,6.96,6.49
4.28,< 4.00,4.34,< 4.00,4.20,4.16,4.25,< 4.00,CCC(C)[C@H](NC(=O)OC(C)(C)C)C(=O)Oc1ccc2[nH]c3c(c2c1)CCN1C(=O)c2cc(F)ccc2N(c2cccc(F)c2)[C@@H]31 (some centres undefined),< 4.00,4.25
4.62,4.48,4.76,4.53,4.52,4.41,4.58,4.37,CC(C)(C)OC(=O)NCC(=O)Oc1ccc2[nH]c3c(c2c1)CCN1C(=O)c2cc(F)ccc2N(c2cccc(F)c2)[C@@H]31,4.41,4.49
4.53,4.61,5.00,4.79,4.44,4.66,4.82,4.24,CC(C)(C)OC(=O)N[C@@H](COCc1ccccc1)C(=O)Oc1ccc2[nH]c3c(c2c1)CCN1C(=O)c2cc(F)ccc2N(c2cccc(F)c2)[C@@H]31,4.77,4.69
6.59,6.70,6.80,6.68,5.86,5.92,6.77,6.32,CC(C)(C)OC(=O)NCC(=O)Oc1ccc2[nH]c3c(c2c1)CCN1C(=O)c2cc(F)ccc2N(c2cccc(F)c2)[C@H]31,7.02,6.70
6.44,6.44,6.57,6.70,6.11,6.13,6.92,6.64,CC(C)(C)OC(=O)N[C@@H](Cc1cnc[nH]1)C(=O)Oc1ccc2[nH]c3c(c2c1)CCN1C(=O)c2cc(F)ccc2N(c2cccc(F)c2)[C@H]31,6.96,6.80
6.74,6.46,,,,,6.89,,O=C1c2cc(F)ccc2N(c2cccc(F)c2)[C@H]2c3[nH]c4ccc(O)cc4c3CCN12,7.00,
4.54,4.69,4.86,4.75,4.41,4.30,4.83,4.34,CSCC[C@H](NC(=O)OC(C)(C)C)C(=O)Oc1ccc2[nH]c3c(c2c1)CCN1C(=O)c2cc(F)ccc2N(c2cccc(F)c2)[C@@H]31,4.69,4.54
6.47,6.37,6.55,6.42,5.94,6.01,6.54,6.09,CC(C)[C@H](NC(=O)OC(C)(C)C)C(=O)Oc1ccc2[nH]c3c(c2c1)CCN1C(=O)c2cc(F)ccc2N(c2cccc(F)c2)[C@H]31,6.70,6.38
4.67,4.77,5.01,5.12,4.45,4.64,4.99,4.38,CC(C)C[C@H](NC(=O)OC(C)(C)C)C(=O)Oc1ccc2[nH]c3c(c2c1)CCN1C(=O)c2cc(F)ccc2N(c2cccc(F)c2)[C@@H]31,4.98,4.73
